In patent US9567336B2, “Conjugated TLR7 and/or TLR8 and TLR2 agonists” (CAYLA, priority 2012, dated 2017):

Legend:
[1] = test system: NF-κB in RAW-Blue™ Cells (RAW 264.7, endogenous TLR7 and TLR2); assay: RAW-Blue Cells NF-κB/AP-1 inducible SEAP reporter assay; assay type: cell-based, mouse; settings: murine monocytic macrophage cell line RAW 264.7, 24 hours, OD at 655 nm; FIGS. 5A, 5B
Experimental: (§1) Some conjugated compounds of the invention were tested for their ability to activate TLR7 and TLR2 receptor signaling. Cell-based assays were carried out using TLR7 and TLR2 reporter cell lines (InvivoGen). The reporter cell lines are engineered HEK293 cells, a human embryonic kidney cell line (ATCC, CRL-1573) that stably express either murine TLR7 (HEK-Blue™ mTLR7) or human TLR7 (HEK-Blue™ hTLR7) or murine TLR2 (HEK-Blue™ mTLR2) or human TLR2 (HEK-Blue™ hTLR2) with an NF-κB-inducible secreted embryonic alkaline phosphatase (SEAP) as the reporter gene. The SEAP reporter gene is placed under the control of the NF-κB and AP-inducible promoter. Stimulation with the corresponding TLR ligand activates NF-κB and AP-1, which induces the production of SEAP. Detection of SEAP is measured following culturing cells in HEK-Blue™ Detection media (InvivoGen). HEK-Blue™ Detection contains a SEAP substrate, which upon hydrolysis by SEAP produces a colorimetric change allowing for detection of SEAP as the protein is secreted. […] These assays were carried out using RAW-Blue™ Cells (InvivoGen), derived from RAW 264.7 mouse leukemic monocytic macrophage cell line (ATCC, CRL 2278) stably overexpressing a NF-κB/AP-1 inducible SEAP reporter constructs.
(§2) To perform the assay, cells were seeded on 96 well microliter plates at 50,000 or 100,000 cells per well for HEK-Blue™ Cells and RAW-Blue™ Cells respectively, and cultured at 37° C. in the presence of the conjugated compounds. The conjugated compounds were prepared as follows: First, stock solutions of the small molecule conjugated compounds of the invention were prepared in ethanol or water to a concentration of 10 mg/ml. A working dilution of the conjugated TLR7-TLR2 small molecules was made up in water and added to cells at a final range of concentrations from 10 μg/mL to 10 pg/ml. The working dilutions of the conjugated TLR7-TLR2 small molecules as the stated concentrations were directly added to the reporter cell lines and incubated at 37° C. for 24 hours. After 24 hours of incubation, the effect on reporter gene activity was determined by reading the OD at 655 nm using iMark™ Microplate Reader (BIO-RAD).
(§3) The conjugated compounds were tested alone for their ability to specifically activate TLR7 and TLR2, alongside the known TLR7 activators R848 or CL264 (InvivoGen) and the TLR2 agonists Pam2CSK4 or Pam3CSK4 (InvivoGen). The specificity of the TLR activity was determined by use of reporter cell lines to the other TLRs (data not shown). […] The molecules show a tendency to activate mouse TLR7 with greater sensitivity than human TLR7. […] Furthermore, dose-dependent responses of the conjugated compounds indicate significant TLR activities of TLR7 and TLR2 compared to the corresponding controls.

[2] = molecular target: T1, murine TLR2 (Mus musculus, UniProt Q9QUN7); assay: HEK-Blue mTLR2 NF-κB/AP-1 SEAP reporter cell assay; assay type: cell-based; settings: HEK-Blue mTLR2 reporter cells, 10 μg/mL to 10 pg/ml, 24 hours, OD at 655 nm; FIG. 4
T1 construct: host or cells: HEK293 (HEK-Blue mTLR2)
Experimental: as §1, §2, §3

[3] = molecular target: T2, human TLR2 (Homo sapiens, UniProt O60603); assay: HEK-Blue hTLR2 NF-κB/AP-1 SEAP reporter cell assay; assay type: cell-based; settings: HEK-Blue hTLR2 reporter cells, 10 μg/mL to 10 pg/ml, 24 hours, OD at 655 nm; FIGS. 3A, 3B
T2 construct: host or cells: HEK293 (HEK-Blue hTLR2)
Experimental: as §1, §2, §3

[4] = molecular target: T3, human TLR7 (Homo sapiens, UniProt Q9NYK1); assay: HEK-Blue hTLR7 NF-κB/AP-1 SEAP reporter cell assay; assay type: cell-based; settings: HEK-Blue hTLR7 reporter cells, 10 μg/mL to 10 pg/ml, 24 hours, OD at 655 nm; FIGS. 1A, 1B
T3 construct: host or cells: HEK293 (HEK-Blue hTLR7)
T3 sequence (Q9NYK1 27-1049): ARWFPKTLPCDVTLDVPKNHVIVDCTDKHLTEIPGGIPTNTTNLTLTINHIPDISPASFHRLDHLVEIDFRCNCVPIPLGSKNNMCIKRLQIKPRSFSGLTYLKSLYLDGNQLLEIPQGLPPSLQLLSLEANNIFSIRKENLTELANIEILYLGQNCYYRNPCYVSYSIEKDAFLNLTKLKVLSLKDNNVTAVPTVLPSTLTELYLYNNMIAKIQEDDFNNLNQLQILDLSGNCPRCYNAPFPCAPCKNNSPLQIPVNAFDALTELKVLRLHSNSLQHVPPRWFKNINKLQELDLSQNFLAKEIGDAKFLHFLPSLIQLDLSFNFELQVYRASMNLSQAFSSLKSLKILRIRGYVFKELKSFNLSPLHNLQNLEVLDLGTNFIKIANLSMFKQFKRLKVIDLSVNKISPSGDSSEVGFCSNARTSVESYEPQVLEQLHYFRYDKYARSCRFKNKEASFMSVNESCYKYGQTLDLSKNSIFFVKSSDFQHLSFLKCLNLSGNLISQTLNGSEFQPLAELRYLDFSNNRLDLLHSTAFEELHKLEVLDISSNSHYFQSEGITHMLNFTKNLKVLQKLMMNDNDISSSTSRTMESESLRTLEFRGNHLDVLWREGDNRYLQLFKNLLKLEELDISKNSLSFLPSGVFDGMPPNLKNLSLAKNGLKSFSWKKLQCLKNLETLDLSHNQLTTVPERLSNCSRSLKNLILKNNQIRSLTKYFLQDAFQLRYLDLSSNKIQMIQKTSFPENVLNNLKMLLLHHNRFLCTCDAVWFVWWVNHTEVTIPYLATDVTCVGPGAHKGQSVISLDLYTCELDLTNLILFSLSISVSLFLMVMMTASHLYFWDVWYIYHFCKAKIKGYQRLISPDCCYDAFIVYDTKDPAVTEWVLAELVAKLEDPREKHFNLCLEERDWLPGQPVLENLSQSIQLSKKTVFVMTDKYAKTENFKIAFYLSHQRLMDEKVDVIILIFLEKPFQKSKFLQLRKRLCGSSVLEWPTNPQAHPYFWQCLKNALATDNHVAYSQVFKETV
Experimental: as §1, §2, §3

[5] = molecular target: T4, murine TLR7 (Mus musculus, UniProt P58681); assay: HEK-Blue mTLR7 NF-κB/AP-1 SEAP reporter cell assay; assay type: cell-based; settings: HEK-Blue mTLR7 reporter cells, 10 μg/mL to 10 pg/ml, 24 hours, OD at 655 nm; FIGS. 2A, 2B
T4 construct: host or cells: HEK293 (HEK-Blue mTLR7)
T4 sequence (P58681 27-1050): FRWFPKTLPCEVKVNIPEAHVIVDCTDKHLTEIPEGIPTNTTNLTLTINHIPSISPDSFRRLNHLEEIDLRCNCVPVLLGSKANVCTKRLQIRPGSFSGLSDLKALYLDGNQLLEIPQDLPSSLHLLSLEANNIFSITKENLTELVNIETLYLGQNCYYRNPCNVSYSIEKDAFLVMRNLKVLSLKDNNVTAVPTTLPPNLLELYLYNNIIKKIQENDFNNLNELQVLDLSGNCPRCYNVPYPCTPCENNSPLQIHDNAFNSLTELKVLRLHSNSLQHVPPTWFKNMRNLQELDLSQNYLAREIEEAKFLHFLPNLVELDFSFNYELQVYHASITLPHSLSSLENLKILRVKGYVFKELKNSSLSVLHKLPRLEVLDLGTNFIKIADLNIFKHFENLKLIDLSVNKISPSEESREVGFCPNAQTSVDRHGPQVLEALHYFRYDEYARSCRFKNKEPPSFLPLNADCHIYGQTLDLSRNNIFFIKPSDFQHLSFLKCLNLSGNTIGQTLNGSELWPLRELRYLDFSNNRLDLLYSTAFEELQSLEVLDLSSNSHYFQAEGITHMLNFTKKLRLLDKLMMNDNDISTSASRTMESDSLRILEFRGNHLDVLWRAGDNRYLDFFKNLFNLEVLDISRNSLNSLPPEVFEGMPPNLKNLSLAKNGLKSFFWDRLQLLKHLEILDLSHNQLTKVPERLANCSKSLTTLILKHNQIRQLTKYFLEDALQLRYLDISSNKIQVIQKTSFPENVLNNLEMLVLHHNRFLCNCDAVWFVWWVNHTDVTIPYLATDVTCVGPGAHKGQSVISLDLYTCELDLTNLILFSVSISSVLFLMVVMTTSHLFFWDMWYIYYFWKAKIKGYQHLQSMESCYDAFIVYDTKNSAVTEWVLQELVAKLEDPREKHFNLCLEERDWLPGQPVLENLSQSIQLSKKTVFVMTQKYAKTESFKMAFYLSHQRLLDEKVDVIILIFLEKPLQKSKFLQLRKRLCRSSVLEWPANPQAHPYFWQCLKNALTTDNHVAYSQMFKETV
Experimental: as §1, §2, §3

T2 sequence (O60603 21-784): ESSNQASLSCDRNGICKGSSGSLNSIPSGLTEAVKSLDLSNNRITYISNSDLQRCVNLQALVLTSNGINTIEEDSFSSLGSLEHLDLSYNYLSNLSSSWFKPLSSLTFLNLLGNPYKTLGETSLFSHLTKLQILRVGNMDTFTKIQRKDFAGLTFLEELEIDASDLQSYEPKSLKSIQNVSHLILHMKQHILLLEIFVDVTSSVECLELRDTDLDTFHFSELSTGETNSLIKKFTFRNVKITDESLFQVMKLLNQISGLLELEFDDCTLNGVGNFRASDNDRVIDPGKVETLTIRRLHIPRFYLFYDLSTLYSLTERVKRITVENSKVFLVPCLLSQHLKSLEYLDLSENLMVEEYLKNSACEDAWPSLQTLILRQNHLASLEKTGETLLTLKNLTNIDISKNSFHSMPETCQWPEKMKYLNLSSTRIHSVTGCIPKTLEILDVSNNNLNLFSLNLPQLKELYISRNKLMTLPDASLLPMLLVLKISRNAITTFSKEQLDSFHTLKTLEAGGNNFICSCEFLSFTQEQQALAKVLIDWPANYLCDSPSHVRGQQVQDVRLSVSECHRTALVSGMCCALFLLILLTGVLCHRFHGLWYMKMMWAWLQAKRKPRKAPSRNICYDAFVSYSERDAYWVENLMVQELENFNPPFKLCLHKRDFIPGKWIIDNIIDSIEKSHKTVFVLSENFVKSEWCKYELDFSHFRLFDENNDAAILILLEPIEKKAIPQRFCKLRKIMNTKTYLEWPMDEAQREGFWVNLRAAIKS
T1 sequence (Q9QUN7 25-784): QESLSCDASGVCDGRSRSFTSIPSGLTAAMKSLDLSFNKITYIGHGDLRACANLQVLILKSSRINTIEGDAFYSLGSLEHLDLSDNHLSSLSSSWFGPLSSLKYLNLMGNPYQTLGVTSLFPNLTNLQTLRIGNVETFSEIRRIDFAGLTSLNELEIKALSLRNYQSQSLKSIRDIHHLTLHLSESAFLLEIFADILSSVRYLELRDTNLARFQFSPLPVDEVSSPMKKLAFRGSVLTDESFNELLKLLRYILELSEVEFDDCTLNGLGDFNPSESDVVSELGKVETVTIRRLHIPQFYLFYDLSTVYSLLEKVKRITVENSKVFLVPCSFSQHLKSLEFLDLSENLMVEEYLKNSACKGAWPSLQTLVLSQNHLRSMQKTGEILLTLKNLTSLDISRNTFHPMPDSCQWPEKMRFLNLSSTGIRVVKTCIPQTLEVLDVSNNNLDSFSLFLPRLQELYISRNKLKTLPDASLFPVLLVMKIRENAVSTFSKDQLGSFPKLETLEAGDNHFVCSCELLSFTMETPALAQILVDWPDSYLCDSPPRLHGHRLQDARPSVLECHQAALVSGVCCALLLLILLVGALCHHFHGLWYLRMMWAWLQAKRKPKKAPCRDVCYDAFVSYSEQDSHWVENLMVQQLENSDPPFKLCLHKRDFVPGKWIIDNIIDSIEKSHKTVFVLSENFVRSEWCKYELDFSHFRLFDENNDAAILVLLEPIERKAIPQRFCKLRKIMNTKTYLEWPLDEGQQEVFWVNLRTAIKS

| Compound | induction of NF-κB in RAW-Blue cells [1] | ability to activate TLR2 receptor (murine TLR2) [2] | ability to activate TLR2 receptor (human TLR2) [3] | ability to activate TLR7 receptors (human TLR7) [4] | ability to activate TLR7 receptors (murine TLR7) [5] |
| --- | --- | --- | --- | --- | --- |
| CCCCCCCCCCCCCCCCCC(=O)OCCSC[C@H](N)C(=O)N[C@@H](CO)C(=O)Nc1ccc(Cn2c(O)nc3c(N)nc(NCCCC)nc32)cc1 [CL560, 2-((R)-2-amino-3-((S)-1-(4-((6-amino-2-(butylamino)-8-hydroxy-9H-purin-9-yl)methyl)phenylamino)-3-hydroxy-1-oxopropan-2-ylamino)-3-oxopropylthio)ethyl stearate] | activate NF-κB | activate TLR2 receptor | activate TLR2 receptor | activate TLR7 receptors | activate TLR7 receptors |
| CCCCCCCCCCCCCCCC(=O)OCCSC[C@H](N)C(=O)N[C@@H](CO)C(=O)Nc1ccc(Cn2c(O)nc3c(N)nc(NCCCC)nc32)cc1 [CL559, 2-((R)-2-amino-3-((S)-1-(4-((6-amino-2-(butylamino)-8-hydroxy-9H-purin-9-yl)methyl)phenylamino)-3-hydroxy-1-oxopropan-2-ylamino)-3-oxopropylthio)ethyl palmitate] | activate NF-κB | activate TLR2 receptor | activate TLR2 receptor | activate TLR7 receptors | activate TLR7 receptors |
| CCCCCCCCCCCCCCCC(=O)N[C@@H](CSCC(COC(=O)CCCCCCCCCCCCCCC)OC(=O)CCCCCCCCCCCCCCC)C(=O)Nc1ccc(Cn2c(O)nc3c(N)nc(NCCCC)nc32)cc1 (mixture of isomers) [CL446, (R)-3-(3-(4-((6-amino-2-(butylamino)-8-hydroxy-9H-purin-9-yl)methyl)phenylamino)-3-oxo-2-palmitamidopropylthio)propane-1,2-diyl dipalmitate] | activate NF-κB | – | activate TLR2 receptor | activate TLR7 receptors | activate TLR7 receptors |
| CCCCCCCCCCCCCC(=O)OCCSC[C@H](N)C(=O)Nc1ccc(Cn2c(O)nc3c(N)nc(NCCCC)nc32)cc1 [CL555, (R)-2-(2-amino-3-(4-((6-amino-2-(butylamino)-8-hydroxy-9H-purin-9-yl)methyl)phenylamino)-3-oxopropylthio)ethyl tetradecanoate] | activate NF-κB | activate TLR2 receptor | activate TLR2 receptor | activate TLR7 receptors | activate TLR7 receptors |
| CCCCCCCCCCCCCC(=O)OCCSC[C@H](N)C(=O)N[C@@H](CCC(=O)Nc1ccc(Cn2c(O)nc3c(N)nc(NCCCC)nc32)cc1)C(=O)OC [CL572, 2-((R)-2-amino-3-((S)-5-(4-((6-amino-2-(butylamino)-8-hydroxy-9H-purin-9-yl)methyl)phenylamino)-1-methoxy-1,5-dioxopentan-2-ylamino)-3-oxopropylthio)ethyl tetradecanoate] | – | activate TLR2 receptor | activate TLR2 receptor | activate TLR7 receptors | activate TLR7 receptors |
| CCCCCCCCCCCCCCCC(=O)OCC(CSC[C@H](N)C(=O)N[C@@H](CO)C(=O)Nc1ccc(Cn2c(O)nc3c(N)nc(NCCCC)nc32)cc1)OC(=O)CCCCCCCCCCCCCCC (stereo partly drawn) [CL453, 3-((R)-2-amino-3-((S)-1-(4-((6-amino-2-(butylamino)-8-hydroxy-9H-purin-9-yl)methyl)phenylamino)-3-hydroxy-1-oxopropan-2-ylamino)-3-oxopropylthio)propane-1,2-diyl dipalmitate] | activate NF-κB | – | activate TLR2 receptor | activate TLR7 receptors | activate TLR7 receptors |
